The compounds below were run against T1, 11β-HSD1 (Homo sapiens, UniProt P28845) (assay: In vitro inhibition of 11β-HSD1, HTRF detection of cortisol generated from cortisone by human liver microsomes). Conditions: 11β-HSD IC50 (nM), 1 hour at 37° C., pH 6.0, NADPH 200 μM, cortisone 80 nM, inhibition relative to carbenoxolone signal.
T1 construct: detecting cortisol generated from cortisterone by human liver microsomes; from tissue; host or cells: human liver microsomes
Format: biochemical
In short: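 Inhibition expressed against the carbenoxolone signal and fitted to IC50 curves. Readout: HTRF competition between microsomal cortisol and XL665-labelled cortisol for Eu-cryptate anti-cortisol antibody (typically 2 h), with emission ratio 665/615 calibrated to cortisol concentration.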

T1 sequence (P28845 whole entry): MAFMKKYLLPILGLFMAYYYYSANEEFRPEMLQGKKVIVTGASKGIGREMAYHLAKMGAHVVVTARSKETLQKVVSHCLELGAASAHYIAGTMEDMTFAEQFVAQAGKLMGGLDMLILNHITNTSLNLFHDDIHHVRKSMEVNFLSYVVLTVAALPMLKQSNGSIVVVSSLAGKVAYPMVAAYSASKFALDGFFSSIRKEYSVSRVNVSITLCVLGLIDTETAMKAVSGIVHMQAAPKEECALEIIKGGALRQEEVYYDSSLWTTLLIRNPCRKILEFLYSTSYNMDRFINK

Compound | IC50
CC1(C)[C@H]2Cc3c(O)cccc3[C@]1(C)CCN2C(=O)c1ccc(Cn2cncn2)cc1 [Example 131, [(2R,6S)-10-Hydroxy-6,11,11-trimethyl-1,2,5,6-tetrahydro-4H-2,6-methano-benzo[d]azocin-3-yl]-(4-[1,2,4]triazol-1-ylmethyl-phenyl)-methanone] | 361 nM
Cc1noc(C)c1C(=O)N1CC[C@@]2(C)c3cccc(O)c3C[C@@H]1C2(C)C [Example 121] | 4120 nM
CC1(C)[C@H]2Cc3c(O)cccc3[C@]1(C)CCN2C(=O)c1c[nH]c2ccc(F)cc12 [Example 193, (5-Fluoro-1H-indol-3-yl)-[(2R,6S)-10-hydroxy-6,11,11-trimethyl-1,2,5,6-tetrahydro-4H-2,6-methano-benzo[d]azocin-3-yl]-methanone] | 360 nM
CC1(C)[C@H]2Cc3ccccc3[C@]1(C)CCN2C(=O)c1ccc2ccccc2c1 [Example 282, Naphthalen-2-yl-[(2R,6S)-6,11,11-trimethyl-1,2,5,6-tetrahydro-4H-2,6-methano-benzo[d]azocin-3-yl]-methanone] | 409 nM
C[C@H]1[C@H]2Cc3ccc(O)cc3[C@]1(C)CCN2C(=O)c1ccco1 [Example 113, Furan-2-yl-[(2R,6R,11R)-8-hydroxy-6,11-dimethyl-1,2,5,6-tetrahydro-4H-2,6-methano-benzo[d]azocin-3-yl]-methanone] | 3630 nM
CC12CCN(C(=O)c3ccc4nc[nH]c4c3)C(Cc3cc(NS(C)(=O)=O)ccc31)C2(C)C (centres unmarked) [Example 181, N-[3-(3H-Benzoimidazole-5-carbonyl)-6,11,11-trimethyl-1,2,3,4,5,6-hexahydro-2,6-methano-benzo[d]azocin-9-yl]-methanesulfonamide] | 147 nM
COc1ccc2c(c1)[C@]1(C)CCN(C(=O)c3cccnc3)[C@H](C2)[C@@H]1C [Example 107, [(2R,6R,11R)-8-Methoxy-6,11-dimethyl-1,2,5,6-tetrahydro-4H-2,6-methano-benzo[d]azocin-3-yl]-pyridin-3-yl-methanone] | 2550 nM
CC1(C)[C@H]2Cc3cc4nn[nH]c4cc3[C@]1(C)CCN2C(=O)c1ccc2nc[nH]c2c1 [Example 265, (3H-Benzoimidazol-5-yl)-[(6R,10S)-5,6,7,8,9,10-hexahydro-10,12,12-trimethyl-6,10-methano-1H-triazolo[5,4-i][3]benzazocin-7-yl]-methanone] | 22 nM
COC(=O)c1ccc(C(=O)N2CC[C@@]3(C)c4cccc(O)c4C[C@@H]2C3(C)C)cc1 [Example 50, 4-[(2R,6S)-10-Hydroxy-6,11,11-trimethyl-1,2,5,6-tetrahydro-4H-2,6-methano-benzo[d]azocine-3-carbonyl]-benzoic acid methyl ester] | 3000 nM
CC1(C)[C@H]2Cc3ccccc3[C@]1(C)CCN2C(=O)c1ccc([N+](=O)[O-])cc1 [Example 280, (4-Nitro-phenyl)-[(2R,6S)-6,11,11-trimethyl-1,2,5,6-tetrahydro-4H-2,6-methano-benzo[d]azocin-3-yl]-methanone] | 1260 nM
Cc1nc(-c2ccc3c(c2)CC2N(C(=O)c4ccc5[nH]cnc5c4)CCC3(C)C2(C)C)no1 (centres unmarked) [Example 176, (1H-Benzoimidazol-5-yl)-[6,11,11-trimethyl-9-(5-methyl-[1,2,4]oxadiazol-3-yl)-1,2,5,6-tetrahydro-4H-2,6-methano-benzo[d]azocin-3-yl]-methanone] | 603 nM
Cc1ccc2c(c1)C1(C)CCN(C(=O)c3ccc4nc[nH]c4c3)C(C2)C1(C)C (centres unmarked) [Example 69, (3H-Benzoimidazol-5-yl)-(6,8,11,11-tetramethyl-1,2,5,6-tetrahydro-4H-2,6-methano-benzo[d]azocin-3-yl)-methanone] | 105 nM
Cc1nc2ccc(C(=O)N3CC[C@@]4(C)c5cccc(O)c5C[C@@H]3C4(C)C)cc2[nH]1 [Example 17, [(2R,6S)-10-Hydroxy-6,11,11-trimethyl-1,2,5,6-tetrahydro-4H-2,6-methano-benzo[d]azocin-3-yl]-(2-methyl-3H-benzoimidazol-5-yl)-methanone] | 1380 nM
CC1(C)[C@@H]2Cc3ccc(O)cc3[C@@]1(C)CCN2C(=O)c1ccc2nc[nH]c2c1 [Example 79, (3H-Benzoimidazol-5-yl)-[(2S,6R)-8-hydroxy-6,11,11-trimethyl-1,2,5,6-tetrahydro-4H-2,6-methano-benzo[d]azocin-3-yl]-methanone] | 1370 nM
COc1ccc2c(c1)[C@]1(C)CCN(C(=O)c3occc3C)[C@H](C2)[C@@H]1C [Example 111, [(2R,6R,11R)-8-Methoxy-6,11-dimethyl-1,2,5,6-tetrahydro-4H-2,6-methano-benzo[d]azocin-3-yl]-(3-methyl-furan-2-yl)-methanone] | 1600 nM
Cn1cnc2cc(C(=O)N3CC[C@@]4(C)c5cccc(O)c5C[C@@H]3C4(C)C)ccc21 [Example 19, [(2R,6S)-10-Hydroxy-6,11,11-trimethyl-1,2,5,6-tetrahydro-4H-2,6-methano-benzo[d]azocin-3-yl]-(1-methyl-1H-benzoimidazol-5-yl)-methanone] | 658 nM
Cc1ccc2[nH]cc(C(=O)N3CC[C@@]4(C)c5cccc(O)c5C[C@@H]3C4(C)C)c2c1 [Example 248, [(2R,6S)-10-Hydroxy-6,11,11-trimethyl-1,2,5,6-tetrahydro-4H-2,6-methano-benzo[d]azocin-3-yl)-(5-methyl-1H-indol-3-yl)-methanone] | 1510 nM
C[C@@H]1[C@@H]2Cc3ccc(O)cc3[C@@]1(C)CCN2C(=O)c1ccc2nc[nH]c2c1 [Example 54, (3H-Benzoimidazol-5-yl)-(8-hydroxy-6,11-dimethyl-1,2,5,6-tetrahydro-4H-2,6-methano-benzo[d]azocin-3-yl)-methanone] | 529 nM
Cc1cnc(-c2nc3cc4c(cc3o2)[C@]2(C)CCN(C(=O)c3ccc5nc[nH]c5c3)[C@H](C4)[C@H]2C)cn1 [Example 333, (3H-Benzoimidazol-5-yl)-[(6R,10R,12S)-5,6,7,8,9,10-hexahydro-10,12-dimethyl-2-(5-methyl-pyrazin-2-yl)-6,10-methano-oxazolo[5,4-i][3]benzazocin-7-yl]-methanone] | 84 nM
COc1ccc2c(c1)[C@]1(C)CCN(C(=O)c3ccccc3C)[C@H](C2)[C@@H]1C [Example 109, [(2R,6R,11R)-8-Methoxy-6,11-dimethyl-1,2,5,6-tetrahydro-4H-2,6-methano-benzo[d]azocin-3-yl]-o-tolyl-methanone] | 1460 nM
CC12CCN(C(=O)c3ccc4nc[nH]c4c3)C(Cc3cccc(C#N)c31)C2(C)C (centres unmarked) [Example 316, 3-(1H-Benzoimidazole-5-carbonyl)-6,11,11-trimethyl-1,2,3,4,5,6-hexahydro-2,6-methano-benzo[d]azocine-7-carbonitrile] | 32 nM
CC1(C)C2Cc3ccc(O)cc3C1(O)CCN2C(=O)c1ccc2nc[nH]c2c1 (centres unmarked) [Example 56, (3H-Benzoimidazol-5-yl)-(6,8-dihydroxy-11,11-dimethyl-1,2,5,6-tetrahydro-4H-4,6-methano-benzo[d]azocin-3-vl)-methanone] | 725 nM
Cc1nccc(-c2ccc3c(c2)[C@]2(C)CCN(C(=O)c4ccc5nc[nH]c5c4)[C@H](C3)[C@H]2C)n1 [Example 262, (3H-Benzoimidazol-5-yl)-[(2R,6R,11S)-6,11-dimethyl-8-(2-methyl-pyrimidin-4-yl)-1,2,5,6-tetrahydro-4H-2,6-methano-benzo[d]azocin-3-yl]-methanone] | 73 nM
